Assay results: patent US20260200919A1, “SUBSTITUTED AMINOPYRIDINE COMPOUNDS AND METHODS OF TREATING DISEASE USING SAME” (Atavistik Bio, Inc., priority 2023, published 2026)

Legend:
[1] = molecular target: T1, human recombinant kinase full-length wildtype AKT1 (Homo sapiens, UniProt P31749); assay: AKT1 kinase assay (wildtype, TR-FRET, Lance); assay type: biochemical; conditions: 0.6 nM wildtype AKT1, 50 nM Ulight-CREBtide, either 50 μM ATP or 2 mM ATP (not specified which), 60 min at RT
T1 construct: Purified human recombinant kinase full-length wildtype AKT1 was expressed in insect cells; made in house; host or cells: insect cells
T1 sequence (P31749 whole entry): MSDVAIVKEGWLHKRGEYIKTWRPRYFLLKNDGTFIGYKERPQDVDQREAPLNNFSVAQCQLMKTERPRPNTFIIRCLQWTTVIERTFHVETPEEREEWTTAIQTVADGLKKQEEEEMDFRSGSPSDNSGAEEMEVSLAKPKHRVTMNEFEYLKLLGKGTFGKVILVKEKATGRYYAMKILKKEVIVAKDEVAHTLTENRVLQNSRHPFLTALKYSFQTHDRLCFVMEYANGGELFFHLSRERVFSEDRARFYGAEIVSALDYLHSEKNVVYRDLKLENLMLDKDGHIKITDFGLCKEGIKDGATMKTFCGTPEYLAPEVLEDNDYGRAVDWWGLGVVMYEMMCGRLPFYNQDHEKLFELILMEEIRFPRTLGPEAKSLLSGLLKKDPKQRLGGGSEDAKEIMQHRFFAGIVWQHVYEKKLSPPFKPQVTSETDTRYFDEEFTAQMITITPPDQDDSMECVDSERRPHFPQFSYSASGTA
How it was run: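 Insect-cell-expressed AKT1, activated in vitro by PDPK1, was used at 0.6 nM with 50 nM Ulight-CREBtide and 50 μM or 2 mM ATP in 50 mM HEPES pH 7.5, 1% DMSO, over a 10-point dose response.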

[2] = molecular target: T2, human recombinant kinase full-length AKT1 E17K (Homo sapiens, UniProt P31749, E17K); assay: AKT1 E17K kinase assay (TR-FRET, Lance); assay type: biochemical; conditions: 0.6 nM AKT1 E17K, 50 nM Ulight-CREBtide, either 50 μM ATP or 2 mM ATP (not specified which), 60 min at RT
T2 construct: Purified human recombinant kinase full-length AKT1 E17K was expressed in insect cells; made in house; host or cells: insect cells
T2 sequence (P31749 whole entry E17K): as the sequence (P31749 whole entry) above, with E17K counted along it
How it was run: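 Full-length human AKT1 E17K (insect cell-expressed, PDPK1-activated; 0.6 nM) with 50 nM ULight-CREBtide in HEPES pH 7.5 with MgCl2 and DTT. ATP at 50 μM or 2 mM, 1% DMSO, 10-point dose response, 60 min at RT.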

Nc1ncccc1-c1nc2ccc(-c3ccccc3)nc2n1-c1ccc(NC(=O)c2cccc(CC(=O)O)c2)c(F)c1 [Compound 67, 2-(3-((4-(2-(2-aminopyridin-3-yl)-5-phenyl-3H-imidazo[4,5-b]pyridin-3-yl)-2-fluorophenyl)carbamoyl)phenyl) acetic acid]
IC50 [1]: < 500 nM | IC50 [2]: 50 to 200 nM

Nc1ncccc1-c1nc2ccc(-c3ccccc3)nc2n1-c1ccc(NCc2ccc(C(=O)O)cc2F)nc1 [Compound 68, 4-[[[5-[2-(2-amino-3-pyridyl)-5-phenyl-imidazo[4,5-b]pyridin-3-yl]-2-pyridyl]amino]methyl]-3-fluoro-benzoic acid]
IC50 [1]: < 500 nM | IC50 [2]: 50 to 200 nM

COC(=O)c1ccc(C(=O)N2CC(c3ccc(-n4c(-c5cccnc5N)nc5ccc(-c6ccccc6)nc54)cc3)C2)cc1 [Compound 69, methyl 4-(3-(4-(2-(2-aminopyridin-3-yl)-5-phenyl-3H-imidazo[4,5-b]pyridin-3-yl)phenyl)azetidine-1-carbonyl)benzoate]
IC50 [1]: < 500 nM | IC50 [2]: > 500 nM

Nc1ncccc1-c1nc2ccc(-c3ccccc3)nc2n1-c1ccc(C2CN(C(=O)c3ccc(C(=O)O)cc3)C2)cc1 [Compound 70, 4-(3-(4-(2-(2-aminopyridin-3-yl)-5-phenyl-3H-imidazo[4,5-b]pyridin-3-yl)phenyl)azetidine-1-carbonyl)benzoic acid]
IC50 [1]: < 500 nM | IC50 [2]: < 50 nM

COC(=O)c1cccc(C(=O)N2CC(c3ccc(-n4c(-c5cccnc5N)nc5ccc(-c6ccccc6)nc54)cc3)C2)c1 [Compound 71, methyl 3-(3-(4-(2-(2-aminopyridin-3-yl)-5-phenyl-3H-imidazo[4,5-b]pyridin-3-yl)phenyl)azetidine-1-carbonyl)benzoate]
IC50 [1]: < 500 nM | IC50 [2]: 50 to 200 nM

Nc1ncccc1-c1nc2ccc(-c3ccccc3)nc2n1-c1ccc(C2CN(C(=O)c3cccc(C(=O)O)c3)C2)cc1 [Compound 72, 3-(3-(4-(2-(2-aminopyridin-3-yl)-5-phenyl-3H-imidazo[4,5-b]pyridin-3-yl)phenyl)azetidine-1-carbonyl)benzoic acid]
IC50 [1]: < 500 nM | IC50 [2]: 50 to 200 nM

COC(=O)c1ccccc1C(=O)N1CC(c2ccc(-n3c(-c4cccnc4N)nc4ccc(-c5ccccc5)nc43)cc2)C1 [Compound 73, methyl 2-(3-(4-(2-(2-aminopyridin-3-yl)-5-phenyl-3H-imidazo[4,5-b]pyridin-3-yl)phenyl)azetidine-1-carbonyl)benzoate]
IC50 [1]: < 500 nM | IC50 [2]: > 500 nM

Nc1ncccc1-c1nc2ccc(-c3ccccc3)nc2n1-c1ccc(C2CN(C(=O)c3ccccc3C(=O)O)C2)cc1 [Compound 74, 2-(3-(4-(2-(2-aminopyridin-3-yl)-5-phenyl-3H-imidazo[4,5-b]pyridin-3-yl)phenyl)azetidine-1-carbonyl)benzoic acid]
IC50 [1]: > 500 nM | IC50 [2]: > 500 nM

Cc1cc(C(=O)O)ccc1C(=O)N1CC(c2ccc(-n3c(-c4cccnc4N)nc4ccc(-c5ccccc5)nc43)cc2)C1 [Compound 75, 4-(3-(4-(2-(2-aminopyridin-3-yl)-5-phenyl-3H-imidazo[4,5-b]pyridin-3-yl)phenyl)azetidine-1-carbonyl)-3-methylbenzoic acid]
IC50 [1]: < 500 nM | IC50 [2]: < 50 nM

Nc1ncccc1-c1nc2ccc(-c3ccccc3)nc2n1-c1ccc(C2CN(C(=O)c3ccc(C(=O)O)cc3F)C2)cc1 [Compound 76, 4-(3-(4-(2-(2-aminopyridin-3-yl)-5-phenyl-3H-imidazo[4,5-b]pyridin-3-yl)phenyl)azetidine-1-carbonyl)-3-fluorobenzoic acid]
IC50 [1]: < 500 nM | IC50 [2]: < 50 nM

Cc1c(C(=O)O)cccc1C(=O)N1CC(c2ccc(-n3c(-c4cccnc4N)nc4ccc(-c5ccccc5)nc43)cc2)C1 [Compound 77, 3-(3-(4-(2-(2-aminopyridin-3-yl)-5-phenyl-3H-imidazo[4,5-b]pyridin-3-yl)phenyl)azetidine-1-carbonyl)-2-methylbenzoic acid]
IC50 [1]: < 500 nM | IC50 [2]: 50 to 200 nM

Nc1ncccc1-c1nc2ccc(-c3ccccc3)nc2n1-c1ccc(C2CN(C(=O)c3cccc(C(=O)O)c3F)C2)cc1 [Compound 78, 3-(3-(4-(2-(2-aminopyridin-3-yl)-5-phenyl-3H-imidazo[4,5-b]pyridin-3-yl)phenyl)azetidine-1-carbonyl)-2-fluorobenzoic acid]
IC50 [1]: < 500 nM | IC50 [2]: 50 to 200 nM

Nc1ncccc1-c1nc2ccc(-c3ccccc3)nc2n1-c1ccc(C2CN(Cc3cccc(CC(=O)O)c3)C2)cc1 [Compound 79, 2-(3-((3-(4-(2-(2-aminopyridin-3-yl)-5-phenyl-3H-imidazo[4,5-b]pyridin-3-yl)phenyl)azetidin-1-yl)methyl)phenyl) acetic acid]
IC50 [1]: < 500 nM | IC50 [2]: 200 to 500 nM

CC(=O)Nc1ccc(-c2ccc3nc(-c4cccnc4N)n(-c4ccc(CNC(=O)c5cccc(CC(=O)O)c5)cc4)c3n2)cc1 [Compound 80, 2-(3-((4-(5-(4-acetamidophenyl)-2-(2-aminopyridin-3-yl)-3H-imidazo[4,5-b]pyridin-3-yl)benzyl)carbamoyl)phenyl) acetic acid]
IC50 [1]: < 500 nM | IC50 [2]: 200 to 500 nM

CC(=O)Nc1cccc(-c2ccc3nc(-c4cccnc4N)n(-c4ccc(CNC(=O)c5cccc(CC(=O)O)c5)cc4)c3n2)c1 [Compound 81, 2-(3-((4-(5-(3-acetamidophenyl)-2-(2-aminopyridin-3-yl)-3H-imidazo[4,5-b]pyridin-3-yl)benzyl)carbamoyl)phenyl) acetic acid]
IC50 [1]: < 500 nM | IC50 [2]: 50 to 200 nM

Nc1ncccc1-c1nc2cc(-c3ccccc3)cnc2n1-c1ccc(CNC(=O)c2cccc(CC(=O)O)c2)cc1 [Compound 82, 2-(3-((4-(2-(2-aminopyridin-3-yl)-6-phenyl-3H-imidazo[4,5-b]pyridin-3-yl)benzyl)carbamoyl)phenyl) acetic acid]
IC50 [1]: < 500 nM | IC50 [2]: 200 to 500 nM

CC(=O)Nc1cccc(-c2cnc3c(c2)nc(-c2cccnc2N)n3-c2ccc(CNC(=O)c3cccc(CC(=O)O)c3)cc2)c1 [Compound 83, 2-(3-((4-(6-(3-acetamidophenyl)-2-(2-aminopyridin-3-yl)-3H-imidazo[4,5-b]pyridin-3-yl)benzyl)carbamoyl)phenyl) acetic acid]
IC50 [1]: < 500 nM | IC50 [2]: 200 to 500 nM

CC(=O)Nc1ccc(-c2cnc3c(c2)nc(-c2cccnc2N)n3-c2ccc(CNC(=O)c3cccc(CC(=O)O)c3)cc2)cc1 [Compound 84, 2-(3-((4-(6-(4-acetamidophenyl)-2-(2-aminopyridin-3-yl)-3H-imidazo[4,5-b]pyridin-3-yl)benzyl)carbamoyl)phenyl) acetic acid]
IC50 [1]: < 500 nM | IC50 [2]: 50 to 200 nM

Nc1ncccc1-c1nc2cc(-c3cccc(NC(=O)c4ccccc4)c3)cnc2n1-c1ccc(CNC(=O)c2cccc(CC(=O)O)c2)cc1 [Compound 85, 2-(3-((4-(2-(2-aminopyridin-3-yl)-6-(3-benzamidophenyl)-3H-imidazo[4,5-b]pyridin-3-yl)benzyl)carbamoyl)phenyl) acetic acid]
IC50 [1]: < 500 nM | IC50 [2]: 50 to 200 nM

Nc1ncccc1-c1nc2cc(-c3ccc(NC(=O)c4ccccc4)cc3)cnc2n1-c1ccc(CNC(=O)c2cccc(CC(=O)O)c2)cc1 [Compound 86, 2-(3-((4-(2-(2-aminopyridin-3-yl)-6-(4-benzamidophenyl)-3H-imidazo[4,5-b]pyridin-3-yl)benzyl)carbamoyl)phenyl) acetic acid]
IC50 [1]: < 500 nM | IC50 [2]: < 50 nM

COC(=O)Cc1ccc(C(=O)NCc2ccc(-n3c(-c4cccnc4N)nc4cc(-c5cccnc5)cnc43)cc2)cc1 [Compound 87, methyl 2-(4-((4-(2-(2-aminopyridin-3-yl)-6-(pyridin-3-yl)-3H-imidazo[4,5-b]pyridin-3-yl)benzyl)carbamoyl)phenyl)acetate]
IC50 [1]: < 500 nM | IC50 [2]: > 500 nM

Nc1ncccc1-c1nc2cc(-c3cccnc3)cnc2n1-c1ccc(CNC(=O)c2ccc(CC(=O)O)cc2)cc1 [Compound 88, 2-(4-((4-(2-(2-aminopyridin-3-yl)-6-(pyridin-3-yl)-3H-imidazo[4,5-b]pyridin-3-yl)benzyl)carbamoyl)phenyl) acetic acid]
IC50 [1]: < 500 nM | IC50 [2]: > 500 nM

COC(=O)Cc1cccc(C(=O)NCc2ccc(-n3c(-c4cccnc4N)nc4cc(-c5cccnc5)cnc43)cc2)c1 [Compound 89, methyl 2-(3-((4-(2-(2-aminopyridin-3-yl)-6-(pyridin-3-yl)-3H-imidazo[4,5-b]pyridin-3-yl)benzyl)carbamoyl)phenyl)acetate]
IC50 [1]: < 500 nM | IC50 [2]: > 500 nM

Nc1ncccc1-c1nc2cc(-c3cccnc3)cnc2n1-c1ccc(CNC(=O)c2cccc(CC(=O)O)c2)cc1 [Compound 90, 2-(3-((4-(2-(2-aminopyridin-3-yl)-6-(pyridin-3-yl)-3H-imidazo[4,5-b]pyridin-3-yl)benzyl)carbamoyl)phenyl) acetic acid]
IC50 [1]: < 500 nM | IC50 [2]: > 500 nM

COC(=O)CCc1ccc(C(=O)NCc2ccc(-n3c(-c4cccnc4N)nc4cc(-c5cccnc5)cnc43)cc2)cc1 [Compound 91, methyl 3-(4-((4-(2-(2-aminopyridin-3-yl)-6-(pyridin-3-yl)-3H-imidazo[4,5-b]pyridin-3-yl)benzyl)carbamoyl)phenyl) propanoate]
IC50 [1]: < 500 nM | IC50 [2]: > 500 nM
